Laboratory results published in US20230066946A1, “1,5-DIPHENYLPYRAZOLYL-3-OXYALKYL ACIDS AND 1-PHENYL-5-THIENYLPYRAZOLYL-3-OXYALKYL ACIDS AND THE USE THEREOF FOR CONTROL OF UNWANTED PLANT GROWTH” (Bayer Aktiengesellschaft, priority 2019, published 2023).

Columns and labels:
PHBPU = experiment: Post-emergence herbicidal action against PHBPU; format: in vivo, Pharbitis purpurea; details: 320 g/ha, visual rating about 3 weeks after treatment
Description: (§1) [table] Seeds of mono- and dicotyledonous weed plants are placed in plastic pots in sandy loam soil (twin sowing with one species each of mono- or dicotyledonous weed plants per pot), covered with soil and cultivated in a greenhouse under controlled growth conditions. 2 to 3 weeks after sowing, the test plants are treated at the one-leaf stage. The compounds of the invention, formulated in the form of wettable powders (WP) or as emulsion concentrates (EC), are applied to the green parts of the plants as aqueous suspension or emulsion with addition of 0.5% additive at a water application rate equivalent to 600 litres per hectare. After the test plants have been kept in the greenhouse under optimum growth conditions for about 3 weeks, the activity of the preparations is rated visually in comparison to untreated controls. For example, 100% activity=the plants have died, 0% activity=like control plants. Tables 5.1-5.16 below show the effects of selected compounds of the general formula (I) according to Tables 1 to 3 on various harmful plants at an application rate corresponding to 1280 or 320 g/ha, which have been obtained by the aforementioned experimental method.

AMARE [1] = experiment: Pre-emergence herbicidal action against AMARE; format: in vivo, Amaranthus retroflexus; details: scored visually after about 3 weeks vs untreated controls; for Pre-emergence action against AMARE in %: 1280 g/ha
Description: (§2) Seeds of mono- and dicotyledonous weed plants are placed in plastic pots in sandy loam soil (doubly sown with one species each of mono- or dicotyledonous weed plants per pot) and covered with soil. The compounds of the invention, formulated in the form of wettable powders (WP) or as emulsion concentrates (EC), are then applied onto the surface of the covering soil as aqueous suspension or emulsion with addition of 0.5% additive at a water application rate equivalent to 600 litres per hectare. After the treatment, the pots are placed in a greenhouse and kept under good growth conditions for the trial plants. After about 3 weeks, the effect of the preparations is scored visually in comparison with untreated controls as percentages. For example, 100% activity=the plants have died, 0% activity=like control plants. [table] Tables 4.1-4.15 below show the effects of selected compounds of the general formula (I) according to Tables 1 to 3 on various harmful plants at an application rate corresponding to 1280 or 320 g/ha, which have been obtained by the aforementioned experimental method.

AMARE [2] = experiment: Post-emergence herbicidal action against AMARE; format: in vivo, Amaranthus retroflexus; details: visual rating about 3 weeks after treatment
Description: as §1

POLCO = experiment: Post-emergence herbicidal action against POLCO; format: in vivo, Polygonum convolvulus; details: 320 g/ha, visual rating about 3 weeks after treatment
Description: as §1

VIOTR = experiment: Post-emergence herbicidal action against VIOTR; format: in vivo, Viola tricolor; details: 320 g/ha, visual rating about 3 weeks after treatment
Description: as §1

MATIN = experiment: Post-emergence herbicidal action against MATIN; format: in vivo, Matricaria inodora; details: visual rating about 3 weeks after treatment
Description: as §1

VERPE [3] = experiment: Post-emergence herbicidal action against VERPE; format: in vivo, Veronica persica; details: 320 g/ha, visual rating about 3 weeks after treatment
Description: as §1

STEME [4] = experiment: Post-emergence herbicidal action against STEME; format: in vivo, Stellaria media; details: visual rating about 3 weeks after treatment
Description: as §1

ECHCG [5] = experiment: Pre-emergence herbicidal action against ECHCG; format: in vivo, Echinochloa crus-galli; details: scored visually after about 3 weeks vs untreated controls, 100% = plants have died, 0% = like control plants
Description: as §2

VERPE [6] = experiment: Pre-emergence herbicidal action against VERPE; format: in vivo, Veronica persica; details: 320 g/ha, scored visually after about 3 weeks vs untreated controls
Description: as §2

ECHCG [7] = experiment: Post-emergence herbicidal action against ECHCG; format: in vivo, Echinochloa crus-galli; details: 1280 g/ha, post-emergence at one-leaf stage, rated visually after about 3 weeks vs untreated controls
Description: as §1

STEME [8] = experiment: Pre-emergence herbicidal action against STEME; format: in vivo, Stellaria media; details: 1280 g/ha, scored visually after about 3 weeks vs untreated controls
Description: as §2

SETVI [9] = experiment: Pre-emergence herbicidal action against SETVI; format: in vivo, Setaria viridis; details: 1280 g/ha, scored visually after about 3 weeks vs untreated controls
Description: as §2

SETVI [10] = experiment: Post-emergence herbicidal action against SETVI; format: in vivo, Setaria viridis; details: 1280 g/ha, post-emergence at one-leaf stage, rated visually after about 3 weeks vs untreated controls
Description: as §1

SMILES	Post-emergence action against PHBPU in % (PHBPU)	Pre-emergence action against AMARE in % (AMARE [1])	Post-emergence action against AMARE in % (AMARE [2]; 1280 g/ha)	Post-emergence action against POLCO in % (POLCO)	Post-emergence action against AMARE in % (AMARE [2]; 320 g/ha)	Post-emergence action against VIOTR in % (VIOTR)	Post-emergence action against MATIN in % (MATIN; 320 g/ha)	Post-emergence action against MATIN in % (MATIN; 1280 g/ha)	Post-emergence action against VERPE in % (VERPE [3])	Post-emergence action against STEME in % (STEME [4]; 1280 g/ha)	Pre-emergence action at 1280 g/ha against ECHCG in % (ECHCG [5])	Pre-emergence action against VERPE in % (VERPE [6])	Post-emergence action against STEME in % (STEME [4]; 320 g/ha)	Pre-emergence action at 320 g/ha against AMARE in % (AMARE [1]; 320 g/ha, 100% = plants have died, 0% = like control plants)	Post-emergence action against ECHCG in % (ECHCG [7])	Pre-emergence action against STEME in % (STEME [8])	Pre-emergence action against SETVI in % (SETVI [9])	Post-emergence action against SETVI in % (SETVI [10])
COC(=O)COc1nn(-c2ccccc2)c(-c2ccc(Cl)cc2)c1Cl [I-004]	80%	90%	80%	80%														
COC(=O)COc1nn(-c2cccc(F)c2)c(-c2ccc(Cl)cc2)c1Cl [I-005]	80%		80%		80%	80%												
COC(=O)COc1nn(-c2ccc(F)cc2)c(-c2ccccc2)c1C#N [I-011]		90%		80%			90%	90%	80%	80%	80%							
COC(=O)COc1nn(-c2ccc(Cl)cc2)c(-c2cccc(F)c2)c1Cl [I-029]	80%								80%									
COC(=O)COc1nn(-c2cccc(F)c2)c(-c2cccc(Cl)c2)c1C#N [I-038]	80%		90%					80%	80%									
COC(=O)COc1nn(-c2cccc(F)c2)c(-c2cccc(F)c2)c1C#N [I-047]	80%				80%	90%	80%		80%			90%	80%	90%				
CCOC(=O)COc1nn(-c2cc(F)c(F)cc2F)c(-c2ccccc2)c1Cl [I-093]		100%	100%					100%		100%	100%				100%	100%	100%	
CCOC(=O)COc1nn(-c2cc(F)c(F)cc2F)c(-c2cccc(F)c2)c1Cl [I-097]		100%						100%		100%	100%				100%	100%	100%	90%
CCOC(=O)COc1nn(-c2ccc(F)cc2F)c(-c2cccc(F)c2)c1Cl [I-098]		100%	100%					90%		90%	100%				100%	100%	90%	90%
COC(=O)COc1nn(-c2ccc(F)cc2)c(-c2cccc(F)c2)c1Br [I-107]		90%	100%					100%		90%	100%				90%	100%	90%	
O=C(O)COc1nn(-c2ccc(F)cc2)c(-c2cccc(F)c2)c1Cl [I-120]		100%						90%			90%				90%	100%	100%	
O=C(COc1nn(-c2ccc(F)cc2)c(-c2cccc(F)c2)c1Br)OCc1cccc(F)c1 [I-123]		100%	90%					90%							90%	100%	90%	
COC(=O)[C@H](C)Oc1nn(-c2cccc(F)c2)c(-c2cccc(F)c2)c1C#N [I-126]		100%	100%							100%					90%	100%	100%	90%
O=C(O)COc1nn(-c2ccccc2F)c(-c2ccc(F)c(F)c2)c1Br [I-136]		100%	90%					90%		100%	100%				100%	100%	100%	
CCOC(=O)COc1nn(-c2ccccc2F)c(-c2ccc(F)c(F)c2)c1[N+](=O)[O-] [I-143]		100%	100%					100%		100%					100%	90%	100%	
COC(=O)C(C)Oc1nn(-c2ccccc2)c(-c2cccc(F)c2)c1Cl (centres unmarked) [I-164]		100%	100%					100%		100%	100%				90%	100%	100%	100%
CC(Oc1nn(-c2c(F)cccc2F)c(-c2ccc(F)c(F)c2)c1Br)C(=O)O (centres unmarked) [I-167]		100%								100%	100%				90%	100%	100%	
COC(=O)C(C)Oc1nn(-c2c(F)cccc2F)c(-c2ccc(F)c(F)c2)c1Br (centres unmarked) [I-169]		100%	100%					90%		100%	100%				90%	100%	100%	90%
CCOC(=O)CCNC(=O)COc1nn(-c2ccc(F)cc2)c(-c2cccc(F)c2)c1Br [III-019]		90%	100%					90%							90%	100%	100%	90%
C=CCNC(=O)COc1nn(-c2ccccc2F)c(-c2ccc(F)c(F)c2)c1Cl [III-067]		100%						90%		100%	100%					90%	100%	100%
